Data: paper PMC8741506 (Poultry Science, 2021)

target: T1, IBV PLpro (Avian infectious bronchitis virus (strain M41), UniProt P0C6Y3); test: UB-AMC deubiquitination, fluorescence kinetics; assay type: biochemical; conditions: read-out: relative enzymatic activity at 100 μM
T1 sequence (P0C6Y3 1177-1499): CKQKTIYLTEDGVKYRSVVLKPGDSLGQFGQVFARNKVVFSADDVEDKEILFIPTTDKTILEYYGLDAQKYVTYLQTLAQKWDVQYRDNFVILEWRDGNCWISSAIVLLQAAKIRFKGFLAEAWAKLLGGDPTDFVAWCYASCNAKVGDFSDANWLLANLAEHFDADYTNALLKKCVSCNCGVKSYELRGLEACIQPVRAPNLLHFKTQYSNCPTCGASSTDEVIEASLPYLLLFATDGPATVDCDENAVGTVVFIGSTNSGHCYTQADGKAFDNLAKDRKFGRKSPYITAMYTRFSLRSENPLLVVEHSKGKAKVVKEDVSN

Compound | activity at 100 µM
COc1ccc(-c2oc3c(CC=C(C)C)c(O[C@@H]4O[C@H](CO)[C@@H](O)[C@H](O)[C@H]4O)cc(O)c3c(=O)c2O[C@@H]2O[C@@H](C)[C@H](O)[C@@H](O)[C@H]2O)cc1 [icariin] | < 20%
O=c1cc(-c2ccccc2)oc2cc(O)c(O)c(O)c12 [baicalein] | < 20%
O=c1cc(-c2ccccc2)oc2cc(O)cc(O)c12 [chrysin] | < 20%
O=c1c2cc(O)c(O)cc2oc2cc(O)c([C@@H]3O[C@H](CO)[C@@H](O)[C@H](O)[C@H]3O)c(O)c12 [mangiferin] | < 20%
C[C@@H]1O[C@@H](O[C@H]2[C@H](Oc3cc(O)c4c(c3)O[C@H](c3ccc(O)cc3)CC4=O)O[C@H](CO)[C@@H](O)[C@@H]2O)[C@H](O)[C@H](O)[C@H]1O [naringin] | < 20%

target: T1, IBV PLpro; test: UB-AMC deubiquitination, fluorescence kinetics; assay type: biochemical; conditions: not given

Compound | IC50
O=c1c(O)c(-c2cc(O)c(O)c(O)c2)oc2cc(O)cc(O)c12 [myricetin] | 10.6 µM
